Literature values in US20250152551A1, “DOCETAXEL COMPOSITIONS AND METHODS” (ZHUHAI BEIHAI BIOTECH CO., LTD., priority 2022, published 2025).

Legend:
[1] = system: microtubule depolymerization

CC(=O)O[C@@]12CO[C@@H]1C[C@H](O)[C@@]1(C)C(=O)[C@H](O)C3=C(C)[C@@H](OC(=O)[C@H](O)[C@@H](NC(=O)OC(C)(C)C)c4ccccc4)C[C@@](O)([C@@H](OC(=O)c4ccccc4)[C@H]21)C3(C)C [docetaxel]
Solubility in water: practically insoluble in water | Potency in inhibiting microtubule depolymerization relative to paclitaxel [1]: about twice as potent as paclitaxel
